Experimental data published in patent US8895733B2 (Novartis AG, priority 2010, dated 2014).

Molecular target: T1, Nav 1.7 (Homo sapiens, UniProt Q15858)
T1 construct: expressed in transfected cells
Test: Whole-cell voltage clamp electrophysiology, automated patch clamp (marker c in Table of Examples)
Assay type: cell-based
Settings: marker c = Automated patch clamp data; read-out: Nav 1.7 activity
Method in brief: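 A voltage protocol weighted toward inactivated-state block was used to test compounds on stably expressing cells, with pulses from −65 mV holding to −10 mV test and −100 mV. Currents came from whole-cell automated patch-clamp recordings, either IonWorks Quattro or other automated instruments, usually in perforated-patch mode.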

T1 sequence (Q15858 whole entry): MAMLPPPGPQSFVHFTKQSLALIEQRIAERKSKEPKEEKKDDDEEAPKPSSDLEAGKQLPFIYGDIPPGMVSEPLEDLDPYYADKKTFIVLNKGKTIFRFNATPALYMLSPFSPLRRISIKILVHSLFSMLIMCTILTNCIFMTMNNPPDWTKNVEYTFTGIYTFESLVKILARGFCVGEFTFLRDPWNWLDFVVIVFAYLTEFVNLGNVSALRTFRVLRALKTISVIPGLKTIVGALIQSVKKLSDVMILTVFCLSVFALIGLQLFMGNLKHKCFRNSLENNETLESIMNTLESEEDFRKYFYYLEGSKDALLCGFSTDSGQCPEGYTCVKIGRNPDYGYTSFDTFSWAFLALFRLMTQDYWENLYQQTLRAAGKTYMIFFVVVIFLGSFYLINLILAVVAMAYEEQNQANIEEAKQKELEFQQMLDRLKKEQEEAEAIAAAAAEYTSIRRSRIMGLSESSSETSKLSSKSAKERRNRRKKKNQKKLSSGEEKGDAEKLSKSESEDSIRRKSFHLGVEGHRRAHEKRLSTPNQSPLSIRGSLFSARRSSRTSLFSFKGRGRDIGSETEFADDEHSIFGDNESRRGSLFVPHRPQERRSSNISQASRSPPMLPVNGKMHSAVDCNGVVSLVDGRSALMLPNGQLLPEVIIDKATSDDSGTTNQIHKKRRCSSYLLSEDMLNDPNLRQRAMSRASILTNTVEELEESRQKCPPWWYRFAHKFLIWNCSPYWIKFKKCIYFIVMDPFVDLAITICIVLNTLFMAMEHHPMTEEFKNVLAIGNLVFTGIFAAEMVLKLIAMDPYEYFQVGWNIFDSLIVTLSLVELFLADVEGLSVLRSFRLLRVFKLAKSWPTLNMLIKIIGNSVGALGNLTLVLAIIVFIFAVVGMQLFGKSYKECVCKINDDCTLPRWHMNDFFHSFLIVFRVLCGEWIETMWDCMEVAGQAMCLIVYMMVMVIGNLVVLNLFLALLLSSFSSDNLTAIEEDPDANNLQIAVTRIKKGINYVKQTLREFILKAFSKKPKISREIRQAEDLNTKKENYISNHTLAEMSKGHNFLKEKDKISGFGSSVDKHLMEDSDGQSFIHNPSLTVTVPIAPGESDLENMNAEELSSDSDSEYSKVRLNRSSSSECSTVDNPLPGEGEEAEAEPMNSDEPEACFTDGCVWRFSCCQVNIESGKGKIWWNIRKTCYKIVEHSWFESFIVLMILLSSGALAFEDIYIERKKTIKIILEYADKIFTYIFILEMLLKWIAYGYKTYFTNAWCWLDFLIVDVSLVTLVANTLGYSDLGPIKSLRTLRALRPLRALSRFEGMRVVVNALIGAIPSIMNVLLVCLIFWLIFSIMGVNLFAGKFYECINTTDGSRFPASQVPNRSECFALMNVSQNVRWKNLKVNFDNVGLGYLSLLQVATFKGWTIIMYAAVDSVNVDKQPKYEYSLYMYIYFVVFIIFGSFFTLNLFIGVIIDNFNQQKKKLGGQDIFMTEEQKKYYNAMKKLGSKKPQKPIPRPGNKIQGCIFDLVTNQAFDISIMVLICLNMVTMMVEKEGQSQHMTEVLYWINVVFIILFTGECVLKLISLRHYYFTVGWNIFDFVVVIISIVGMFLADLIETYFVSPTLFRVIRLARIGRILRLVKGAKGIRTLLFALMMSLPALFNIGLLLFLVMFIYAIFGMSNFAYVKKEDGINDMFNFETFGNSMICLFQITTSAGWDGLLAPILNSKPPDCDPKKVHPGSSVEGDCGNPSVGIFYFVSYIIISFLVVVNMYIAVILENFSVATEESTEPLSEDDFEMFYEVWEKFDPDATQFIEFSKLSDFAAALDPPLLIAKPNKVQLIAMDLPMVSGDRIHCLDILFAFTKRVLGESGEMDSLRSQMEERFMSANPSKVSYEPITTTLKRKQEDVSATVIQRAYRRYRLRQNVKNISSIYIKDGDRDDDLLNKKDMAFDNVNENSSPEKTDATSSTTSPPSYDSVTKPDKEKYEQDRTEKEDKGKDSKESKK

SMILES	IC50 [µM]
CN(c1ccccc1)c1nc(N)nc(-c2noc(-c3ccc(SCC(F)(F)F)nc3)n2)n1 [Example 318, 2-N-methyl-2-N-phenyl-6-(5-{6-[(2,2,2-trifluoroethyl)sulfanyl]pyridin-3-yl}-1,2,4-oxadiazol-3-yl)-1,3,5-triazine-2,4-diamine]	1.89
COC(=O)c1ccc(-c2nc(-c3nc(N)nc(N(C)c4ccccc4)n3)no2)cn1 [Example 279, methyl 5-(3-{4-amino-6-[methyl(phenyl)amino]-1,3,5-triazin-2-yl}-1,2,4-oxadiazol-5-yl)pyridine-2-carboxylate]	0.444
CN(c1ccccc1)c1nc(N)nc(-c2noc(C(=O)N3CCC(=CCC(F)(F)F)CC3)n2)n1 [Example 322, 2-N-methyl-2-N-phenyl-6-(5-{[4-(3,3,3-trifluoropropylidene)piperidin-1-yl]carbonyl}-1,2,4-oxadiazol-3-yl)-1,3,5-triazine-2,4-diamine]	3.27
CN(c1ccccc1)c1nc(N)nc(-c2noc(C(=O)N3CCCC3)n2)n1 [Example 276, 2-N-methyl-2-N-phenyl-6-{5-[(pyrrolidin-1-yl)carbonyl]-1,2,4-oxadiazol-3-yl}-1,3,5-triazine-2,4-diamine]	1.68
CN(c1ccccc1)c1nc(N)nc(-c2noc(-c3ccn(C)n3)n2)n1 [Example 252, 2-N-methyl-6-[5-(1-methyl-1H-pyrazol-3-yl)-1,2,4-oxadiazol-3-yl]-2-N-phenyl-1,3,5-triazine-2,4-diamine]	2.38
CN(c1ccccc1)c1nc(N)nc(-c2noc(N3CCC(c4ccccc4)CC3)n2)n1 [Example 352, 2-N-methyl-2-N-phenyl-6-[5-(4-phenylpiperidin-1-yl)-1,2,4-oxadiazol-3-yl]-1,3,5-triazine-2,4-diamine]	1.28
CN(c1ccccc1)c1nc(N)nc(-c2noc(N3CCN(C(=O)C(F)(F)F)CC3)n2)n1 [Example 347, 1-[4-(3-{4-amino-6-[methyl(phenyl)amino]-1,3,5-triazin-2-yl}-1,2,4-oxadiazol-5-yl)piperazin-1-yl]-2,2,2-trifluoroethan-1-one]	5.81
CN(c1ccccc1)c1nc(N)nc(-c2noc(-c3ccc4c(c3)COC4)n2)n1 [Example 306, 6-(5-(1,3-dihydro-2-benzofuran-5-yl)-1,2,4-oxadiazol-3-yl]-2-N-methyl-2-N-phenyl-1,3,5-triazine-2,4-diamine]	2.67
CN(c1ccccc1)c1nc(N)nc(-c2noc(N[C@H]3CC[C@H](OCC(F)(F)F)CC3)n2)n1 [Example 337]	7.8
CN(c1ccccc1)c1nc(N)nc(-c2noc(-c3ccc(OC4CCCCC4)nc3)n2)n1 [Example 356, 6-{5-[6-(cyclohexyloxy)pyridin-3-yl]-1,2,4-oxadiazol-3-yl}-2-N-methyl-2-N-phenyl-1,3,5-triazine-2,4-diamine]	0.02
CN(c1ccccc1)c1nc(N)nc(-c2noc(C3CN(S(=O)(=O)c4ccccc4)C3)n2)n1 [Example 313, 6-{5-[1-(benzenesulfonyl)azetidin-3-yl]-1,2,4-oxadiazol-3-yl}-2-N-methyl-2-N-phenyl-1,3,5-triazine-2,4-diamine]	4.86
Nc1nc(Nc2ccccc2)nc(-c2noc(-c3ccc(COC4CCC4)nc3)n2)n1 [Example 213, 6-{5-[6-(cyclobutoxymethyl)pyridin-3-yl]-1,2,4-oxadiazol-3-yl}-2-N-phenyl-1,3,5-triazine-2,4-diamine]	0.067
COc1ccc(CNC(=O)c2nc(-c3nc(N)nc(N(C)c4ccccc4)n3)no2)cn1 [Example 260, 3-{4-amino-6-[methyl(phenyl)amino]-1,3,5-triazin-2-yl}-N-[(6-methoxypyridin-3-yl)methyl]-1,2,4-oxadiazole-5-carboxamide]	1.2
CN(c1ccccc1)c1nc(N)nc(-c2noc(N3CCC(COC4CCC4)CC3)n2)n1 [Example 217, 6-{5-[4-(cyclobutoxymethyl)piperidin-1-yl]-1,2,4-oxadiazol-3-yl}-2-N-methyl-2-N-phenyl-1,3,5-triazine-2,4-diamine]	0.415

The next lines start with the values.

IC50 [µM]	SMILES
9.53	CN(c1ccccc1)c1nc(N)nc(-c2noc([C@@H]3CCCN3C(=O)CC3CC3)n2)n1 [Example 450, 1-[(2S)-2-(3-{4-amino-6-[methyl(phenyl)amino]-1,3,5-triazin-2-yl}-1,2,4-oxadiazol-5-yl)pyrrolidin-1-yl]-2-cyclopropylethan-1-one]
1.45	CN(c1ccccc1)c1nc(N)nc(-c2noc([C@@H]3CCCN3CCC(F)(F)F)n2)n1 [Example 441, 2-N-Methyl-2-N-phenyl-6-{5-[(2S)-1-(3,3,3-trifluoropropyl)pyrrolidin-2-yl]-1,2,4-oxadiazol-3-yl}-1,3,5-triazine-2,4-diamine]
0.061	CN(c1ccccc1)c1nc(N)nc(-c2noc(-c3ccc(SCC4CC4)nc3)n2)n1 [Example 452, 6-(5-{6-[(cyclopropylmethyl)sulfanyl]pyridin-3-yl}-1,2,4-oxadiazol-3-yl)-2-N-methyl-2-N-phenyl-1,3,5-triazine-2,4-diamine]
7.18	CN(c1ccccc1)c1nc(N)nc(-c2noc([C@H]3CCCN3CCC(F)(F)F)n2)n1 [Example 442, 2-N-methyl-2-N-phenyl-6-{5-[(2R)-1-(3,3,3-trifluoropropyl)pyrrolidin-2-yl]-1,2,4-oxadiazol-3-yl}-1,3,5-triazine-2,4-diamine]
0.082	Cc1cccc(N(C)c2nc(N)nc(-c3noc(-c4ccc(OCC(F)(F)F)nc4)n3)n2)c1 [Example 412, 2-N-methyl-2-N-(3-methylphenyl)-6-{5-[6-(2,2,2-trifluoroethoxy)pyridin-3-yl]-1,2,4-oxadiazol-3-yl}-1,3,5-triazine-2,4-diamine]
1.91	CN(c1ccccc1)c1nc(N)nc(-c2noc(N3CC(COc4ccccc4)C3)n2)n1 [Example 495, N-Methyl-6-[5-(3-phenoxymethylazetidin-1-yl)-[1,2,4]oxadiazol-3-yl]-N-phenyl-[1,3,5]triazine-2,4-diamine]
0.711	CN(c1ccccc1)c1nc(N)nc(-c2noc(N3CCC(SCC(F)(F)F)CC3)n2)n1 [Example 362, 2-N-methyl-2-N-phenyl-6-(5-{4-[(2,2,2-trifluoroethyl)sulfanyl]piperidin-1yl}-1,2,4-oxadiazol-3-yl)-1,3,5-triazine-2,4-diamine]
4.92	CN(c1ccccc1)c1nc(N)nc(-c2noc(C3CCC(NC(=O)CC(F)(F)F)CC3)n2)n1 (stereo not drawn) [Example 427, N-[4-(3-{4-amino-6-[methyl(phenyl)amino]-1,3,5-triazin-2-yl}-1,2,4-oxadiazol-5-yl)cyclohexyl]-3,3,3-trifluoropropanamide]
0.121	CN(c1ccccc1)c1nc(N)nc(-c2noc(-c3ccc(SCCC(F)(F)F)nc3)n2)n1 [Example 453, 2-N-methyl-2-N-phenyl-6-{5-{6-[(3,3,3-trifluoropropyl)sulfanyl]pyridin-3-yl}-1,2,4-oxadiazol-3-yl)-1,3,5-triazine-2,4-diamine]
7.95	CN(c1ccccc1)c1nc(N)nc(-c2noc([C@@H]3CCCN3C(=O)CC(F)(F)F)n2)n1 [Example 451, 1-[(2S)-2-(3-{4-amino-6-[methyl(phenyl)amino]-1,3,5-triazin-2-yl}-1,2,4-oxadiazol-5-yl)pyrrolidin-1-yl]-3,3,3-trifluoropropan-1-one]

Same assay, conditions: marker c: Automated patch clamp data; read-out: Nav 1.7 activity

IC50 [µM]	SMILES
0.106	CCN(c1ccccc1)c1nc(N)nc(-c2noc(-c3ccc(OC)cc3)n2)n1 [Example 190, 2-N-ethyl-6-[5-(4-methoxyphenyl)-1,2,4-oxadiazol-3-yl]-2-N-phenyl-1,3,5-triazine-2,4-diamine]
9.08	CC(C)S(=O)(=O)CC1CCN(c2nc(-c3nc(N)nc(N(C)c4ccccc4)n3)no2)CC1 [Example 181, 2-N-methyl-2-N-phenyl-6-(5-{4-[(propane-2-sulfonyl)methyl]piperidin-1-yl}-1,2,4-oxadiazol-3-yl)-1,3,5-triazine-2,4-diamine]
1.08	CN(c1ccccc1)c1nc(N)nc(-c2noc(C3CCN(S(=O)(=O)c4ccccc4)CC3)n2)n1 [Example 172, 6-{5-[1-(benzenesulfonyl)piperidin-4-yl]-1,2,4-oxadiazol-3-yl}-2-N-methyl-2-N-phenyl-1,3,5-triazine-2,4-diamine]
8.12	CN(c1ccccc1)c1nc(N)nc(-c2noc(-c3c[nH]cn3)n2)n1 [Example 59, 6-[5-(1H-Imidazol-4-yl)-[1,2,4]oxadiazol-3-yl]-N-methyl-N-phenyl-[1,3,5]triazine-2,4-diamine]
5.06	Cc1cc(C)c(-c2nc(-c3nc(N)nc(N(C)c4ccccc4)n3)no2)cn1 [Example 154, 6-[5-(4,6-dimethylpyridin-3-yl)-1,2,4-oxadiazol-3-yl]-2-N-methyl-2-N-phenyl-1,3,5-triazine-2,4-diamine]
> 7.71	CC(C)[S+]([O-])CC1CCN(c2nc(-c3nc(N)nc(N(C)c4ccccc4)n3)no2)CC1 (stereo not drawn) [Example 180, 2-N-methyl-2-N-phenyl-6-(5-{4-[(propane-2-sulfinyl)methyl]piperidin-1-yl}-1,2,4-oxadiazol-3-yl)-1,3,5-triazine-2,4-diamine]
2.65	CN(c1ccccc1)c1nc(N)nc(-c2noc(N3CCC(CS(=O)(=O)CC(F)(F)F)CC3)n2)n1 [Example 178, 2-N-Methyl-2-N-phenyl-6-[5-(4-{[(2,2,2-trifluoroethane)sulfonyl]methyl}piperidin-1-yl)-1,2,4-oxadiazol-3-yl]-1,3,5-triazine-2,4-diamine]
0.929	CN(c1ccccc1)c1nc(N)nc(-c2noc(-c3cccc(F)c3)n2)n1 [Example 123, 6-[5-(3-Fluoro-phenyl)-[1,2,4]oxadiazol-3-yl]-N-methyl-N-phenyl-[1,3,5]triazine-2,4-diamine]
1.72	CN(c1ccccc1)c1nc(N)nc(-c2noc(-c3ccc(COC4CCOC4)nc3)n2)n1 (stereo not drawn) [Example 144, N-Methyl-N-phenyl-6-{5-[6-(tetrahydro-furan-3-yloxymethyl)-pyridin-3-yl]-[1,2,4]oxadiazol-3-yl}-[1,3,5]triazine-2,4-diamine]
